Results taken from the NIST ThermoML archive (doi:10.1016/j.tca.2018.11.018).

Legend:
[1] = Molar enthalpy of transition or fusion; settings: DSC
[2] = for Triple point temperature: Crystal 2, DSC
[3] = xn = mol fraction of the nth substance listed; settings: 100 kPa, Liquid, x2 = 0; for viscosity: Falling or rolling sphere viscometry; for mass density: Vibrating tube method

CCCC[n+]1ccccc1.[Br-] [1-butylpyridinium bromide]
Settings	Molar enthalpy of transition or fusion [kcal/mol]	Normal melting temperature [°C]
[1], Crystal 1	4.71	–
[2], Crystal 1, DTA	–	103.68

CCCC[N+]1(C)CCCCC1.[Br-] [N-butyl-N-methylpiperidinium bromide]
Settings	Molar enthalpy of transition or fusion [kcal/mol]	Normal melting temperature [°C]
[1], Crystal 2	0.0153	–
[2], Crystal 1, DTA	–	240.67

Settings	Triple point temperature [K]
[2]	339.53

CC[N+]1(C)CCCCC1.[Br-] [N-ethyl-N-methylpiperidinium bromide]
Settings	Molar enthalpy of transition or fusion [kcal/mol]	Normal melting temperature [°C]
[1], Crystal 1	3.94	–
[2], Crystal 1, DTA	–	109.24

CCCC[N+](CC)(CC)CC.[Br-] [butyltriethyl ammonium bromide]
Settings	Molar enthalpy of transition or fusion, Crystal 2 [kcal/mol]	Normal melting temperature, Crystal 1, DTA [°C]	Normal melting temperature, Crystal 1, visual observation [°C]
[1]	2.68	–	–
[2]	–	216.87	217.0

Settings	Triple point temperature [K]
[2]	444.65

O [water]
Settings	Normal melting temperature [°C]
[2], Crystal, visual observation	0.1

O [water] + CCCC[N+]1(C)CCCCC1.[Br-]
[3]
Settings	mass density [kg/m3]	viscosity [mPa·s]
298.15 K	–	0.89
303.15 K	–	0.797
308.15 K	–	0.719
313.15 K	–	0.653
318.15 K	990.1	0.596
323.15 K	987.9	0.547
328.15 K	985.6	0.504
333.15 K	983.2	0.466
338.15 K	980.3	0.433
343.15 K	978.1	0.404
348.15 K	974.8	0.378

O [water] + CCCC[N+](CC)(CC)CC.[Br-]
[3]
Settings	mass density [kg/m3]	viscosity [mPa·s]
298.15 K	–	0.89
303.15 K	–	0.797
308.15 K	–	0.719
313.15 K	–	0.653
318.15 K	990.1	0.596
323.15 K	987.9	0.547
328.15 K	985.6	0.504
333.15 K	983.2	0.466
338.15 K	980.3	0.433
343.15 K	978.1	0.404
348.15 K	974.8	0.378

O [water] + CCCC[n+]1ccccc1.[Br-]
[3]
Settings	mass density [kg/m3]	viscosity [mPa·s]
298.15 K	–	0.89
303.15 K	–	0.797
308.15 K	–	0.719
313.15 K	–	0.653
318.15 K	990.1	0.596
323.15 K	987.9	0.547
328.15 K	985.6	0.504
333.15 K	983.2	0.466
338.15 K	980.3	0.433
343.15 K	978.1	0.404
348.15 K	974.8	0.378

O [water] + CC[N+]1(C)CCCCC1.[Br-]
[3]
Settings	mass density [kg/m3]	viscosity [mPa·s]
298.15 K	–	0.89
303.15 K	–	0.797
308.15 K	–	0.719
313.15 K	–	0.653
318.15 K	990.1	0.596
323.15 K	987.9	0.547
328.15 K	985.6	0.504
333.15 K	983.2	0.466
338.15 K	980.3	0.433
343.15 K	978.1	0.404
348.15 K	974.8	0.378
